“And” between values parts separate entries of the source, which are not always exact repeats. Equal values may be shown once.
Tests used:
[1] = tested on: NF-κB; assay: TNF-α-stimulated NF-κB dual luciferase reporter assay in HeLa cells; assay type: cell-based
Description: NF-κB activity was assessed using a previously described dual plasmid reporter system. HeLa cells were transfected with NF-κB luciferase (Stratagene Products Division, Agilent Technologies, La Jolla, CA, USA) and pRLuc-N3 (PerkinElmer, Waltham, MA, USA) at an 8:1 ratio, respectively, in triplicate. […] NF-κB activity was measured 5 h later with a Dual-Glo Luciferase Assay (Promega, Madison, WI, USA) and an Omni plate reader (BMG Labtech, Cary, NC, USA). The ratio of firefly luciferase luminescence (NF-κB reporter) to Renilla luciferase luminescence (control) was normalized for the number of viable transfected cells. Data are reported as a ratio of activity of viable treated cells over the activity of cells not exposed to TNF-α or drug (fold stimulation above basal untreated levels of activity). The viability of HeLa cells with and without drug was also measured using a CellTiter-Glo luminescent viability assay (Promega). […]
NF-κB activity was assessed in HeLa cells that were transiently transfected with two reporter constructs as described in the manuscript. Agents were tested for their ability to block TNF- […]
Expression of the luciferase from the Renilla construct was used as a measure of viability, which was confirmed with a cytotoxicity assay (see later section).

[2] = tested on: RAW 264.7 cells; assay: RANKL-mediated osteoclastogenesis / matrix resorption (Osteologic) assay; assay type: cell-based, murine
Description: RAW 264.7 cells (American Type Culture Collection [ATCC], Manassas, VA, USA), a murine monocytic cell line that differentiates in the presence of RANKL, was used for measurements of osteoclastogenesis and osteoclast activity. Cells were amplified on nonadherent culture substratum in high-glucose Dulbecco’s modified Eagle’s medium (DMEM) containing 10 % fetal bovine serum (FBS) and penicillin-streptomycin in a 37 °C, 5 % CO2, humidified incubator and were passaged by manual dissociation. […] Plates were subsequently rinsed, bleached, dried, and analyzed for matrix degradation using a Nikon COOLSCOPE (Nikon Instruments, Melville, NY, USA). Matrix resorption was quantified using EclipseNet (Nikon Instruments)/Visiopharm (Visiopharm, Hørsholm, Denmark) software (see Additional file 1).
In Vitro Osteoclastogenesis
Osteoclastogenic activity was measured using BD osteologic plates and quantitation of the degree of bone matrix digestion on the plate surface. Images from the BD Osteologic assay used to […]
left pane depicts an example of a control well after removal of cells from matrix. Pseudocoloring of matrix (blue) and pits (green) is shown in the far right pane. A transparent overlay of the two images is shown in the center.
Figure 5 - Measurement of drug effects on osteoclastogenesis and osteoclast activity.
Comparisons were made between RANKL treated control wells and wells treated with both RANKL and […]
Agents were initially tested either during differentiation or post differentiation in the bone assay […]
(e.g., Figure 2, Sulfazalazine). […]
indicated (*/**: p < 0.05/0.01, unpaired t-test versus RANKL control). […]

[3] = tested on: MMP-13; assay: MMP-13 ELISA on supernatants of TNF-α-treated chondrogenic pellets; assay type: cell-based, human
[4] = tested on: HeLa cells; assay: HeLa cell viability (CellTiter-Glo)
Description: NF-κB activity was assessed using a previously described dual plasmid reporter system. HeLa cells were transfected with NF-κB luciferase (Stratagene Products Division, Agilent Technologies, La Jolla, CA, USA) and pRLuc-N3 (PerkinElmer, Waltham, MA, USA) at an 8:1 ratio, respectively, in triplicate. […] NF-κB activity was measured 5 h later with a Dual-Glo Luciferase Assay (Promega, Madison, WI, USA) and an Omni plate reader (BMG Labtech, Cary, NC, USA). The ratio of firefly luciferase luminescence (NF-κB reporter) to Renilla luciferase luminescence (control) was normalized for the number of viable transfected cells. Data are reported as a ratio of activity of viable treated cells over the activity of cells not exposed to TNF-α or drug (fold stimulation above basal untreated levels of activity). The viability of HeLa cells with and without drug was also measured using a CellTiter-Glo luminescent viability assay (Promega).
In Vitro Hela Cell Drug Toxicity Testing
Potential drug toxicity was measured using a CTG assay and HeLa cells (Promega). Drugs not tested in
this assay were tested in either of the in vitro toxicity assays already presented (synovial or chondrocyte
Table 3- Drug toxicity measured using a CTG assay and HeLa cells.

[5] = Comparison of in vitro screens: overlapping effective and nontoxic range;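 further: compares non-toxic ranges in synovial cells and chondrocytes with effective ranges against NFkB, MMP-13 and osteoclasts, giving their overlap as the predicted efficacy range in uM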
[6] = tested on: IKK-2; conditions: reported; cited from earlier work
[7] = tested on: Normal human articular chondrocytes; assay: Cytotoxicity to chondrogenic pellets (CellTiter-Blue)
Description: Differentiated chondrogenic pellets were used both to test the ability of drugs to block MMP-13 activity and to test for drug toxicity. […] Supernatants were collected and analyzed for MMP-13 using an enzyme-linked immunosorbent assay (GE Healthcare Life Sciences, Little Chalfont, UK). Cytotoxicity to pellets was assessed using CellTiter-Blue (Promega).

[8] = tested on: SW982; assay: Synovial toxicity (CellTiter-Glo), with or without TNF-α
Description: Viability was measured with the CellTiter-Glo luminescent viability assay (Promega). […] To more accurately predict the effects of the drugs on osteoarthritic synovium, cells were tested with or without TNF-α (20 ng/ml; BioSource).
In Vitro Toxicity Testing with a Synovial Cell Line
Compounds were tested for synovial toxicity using SW982 cells alone or in the presence of TNF as

[9] = tested on: MIA rat model of OA; assay: MIA trial 1 weight bearing (daily s.c. clonidine 0.1, fluocinolone 0.002, morphine 6 mg/kg); assay type: in vivo
Description: (§1) Weight bearing (WB; incapacitance) was measured five times per day, once per week, using a Linton incapacitance meter (Stoelting Co., Wood Dale, IL, USA). Rats were acclimated to the meter before study initiation, and, similarly, immediately before WB, the animals were placed in the meter and allowed to acclimate for 2–5 minutes. Each hind paw was placed on a separate force plate so that the force exerted by each side could be averaged over a 5-second interval, and the mean of three readings was taken for each data point. Right paw force was compared with that on the left side for each group to confirm that animals were displaying incapacitance and/or pain behavior. Differences in force (left minus right) and right paw force as a percentage of the total force exerted by both paws were determined and compared between groups.
Following isoflurane anesthesia, 50 μl (2 mg) of MIA was injected into the synovial space of the left knee. Animals were randomly assigned to groups, and pain behavior was assessed 7, 14, 21, and 28 days following MIA injection and intervention using WB with the Stoelting incapacitance meter (trial 1) or the dRS test (trials 2 and 3). […] Animals received MIA treatment and then saline control or therapeutic. […] Histopathology was performed at each time point and at study termination. All studies were conducted in accordance with the International Association for the Study of Pain Guidelines and were approved by the Algos Therapeutics, Inc. Institutional Animal Care and Use Committee (IACUC) before initiation. Those running the studies were blind to the treatments. See Additional file 1 for further details. […]
dosing were housed three per cage. Animals had free access to food and water and were maintained […]
The animal colony was maintained at approximately 21 °C. All experiments were conducted in accordance with the International Association for the Study of Pain Guidelines.

[10] = tested on: MMT/MCLT rat model of OA; assay: MMT/MCLT trial 1 weight bearing (daily morphine 10 mg/kg, tacrolimus 0.3 or 0.6 mg/kg, fluocinolone 5 or 10 μg/kg, clonidine 100 μg/kg, alendronate 10 μg/kg i.p.; curcumin, withaferin 50 mg/kg p.o.); assay type: in vivo; conditions: low or only dose
Description: as §1
Following isoflurane anesthesia, the medial collateral ligament was transected just below its attachment to the meniscus in the right knee. The meniscus was cut at its narrowest point away from the ossicles so as not to damage the tibial surface and to ensure that the anterior and posterior meniscus halves were freely movable. […] In trial 2, drugs were administered IA weekly beginning 1 week following surgery. Three weeks postsurgery, animals were humanely killed and their right knees were collected for histopathology. All studies were conducted in accordance with the International Association for the Study of Pain Guidelines and were approved by the Bolder BioPATH IACUC (Boulder, CO, USA) in compliance with regulations before study initiation (IACUC protocol BBP03-006). Those running the studies were blinded to the treatments. See Additional file 1 for further details.
Isoflurane and the right knee area prepared for surgery. A skin incision was made over the medial aspect of the knee and the medial collateral ligament was exposed by blunt dissection and then transected. The medial meniscus was cut through the full thickness to simulate a complete tear and the skin was then closed with suture.
All pharmaceutical agents were prepared and stored as recommended by the supplier. Daily drug preparations were made fresh from stock solutions. […]
In Trial 2 drugs were […]
administered IA weekly beginning one week following surgery. […]
were delivered by gavage and were prepared in 0.3% Methyl Cellulose.
WB was measured five times a day, once a week, using a Linton incapacitance meter (Stoelting Co.) to assess pain behavior. Rats were acclimated to the incapacitance meter prior to study initiation.
Similarly, immediately prior to WB animals were placed in the incapacitance meter and allowed to acclimate for 2-5 minutes. Each hind paw was placed on a separate force plate so that the force exerted by each side could be averaged over a 5 second interval and the mean of three readings taken for each data point. Right paw force was compared to left for each group to confirm that animals were displaying incapacitance / pain behavior. Difference in force (left minus right) and right paw force as a percentage of the total force exerted by both paws were determined and compared between groups. Three weeks after surgery, animals were humanely euthanized and right knees collected for histopathology evaluation.
Figure 2. MMT/MCLT Trial Timeline […]
MMT/MCLT Dosing (once/day)
The study design and animal usage was approved by Bolder BioPATH’s Institutional Animal Care and Use Committee (IACUC) for compliance with regulations prior to study initiation (IACUC […]
Labs. Animals were identified by a distinct mark at the base of the tail delineating group and animal number. After randomization, all cages were labeled with protocol number, group numbers, and animal numbers with appropriate color-coding (see protocol).

[11] = tested on: MMT/MCLT rat model of OA; assay: MMT/MCLT trial 1 histopathology (same doses); assay type: in vivo; conditions: low or only dose
Description: For MMT/MCLT rat knee joints, sections were cut in 200-μm steps; stained with toluidine blue (also with a right and left half per section); and similarly analyzed for cartilage degeneration, proteoglycan loss, collagen damage, and osteophyte formation. Results were averaged across the three sections for an overall semiquantitative score. Regional differences across the tibial plateau were taken into consideration by dividing each section into three zones delineated using an ocular micrometer (outside, middle, and inside). Scores were based on the percentage of area affected within the zone.
Cartilage degeneration in the tibia was scored on a 5-point scale as detailed in the Methods section of Additional file 1. The total extent of degeneration of the tibial plateau was measured (in micrometers) and included an analysis of cell loss, proteoglycan loss, and collagen damage. Significant cartilage degeneration reflecting any degeneration extending through more than 50 % of the cartilage thickness was also measured. Collagen damage across the medial tibial plateau (the most severely affected section of the two halves) was also quantified.
Osteophytes and femoral cartilage degeneration were analyzed as detailed in Additional file 1. Scoring of the osteophytes and categorization into small, medium, and large was performed using an ocular micrometer. The actual osteophyte measurement (tidemark to farthest distance point extending toward the synovium) was also recorded. The femoral cartilage degeneration score and the three-zone sum of the tibial cartilage degeneration scores (mean of three levels) were summed to create a total cartilage degeneration score. The mean osteophyte score for each joint was added to this value to create a total joint score. […]
Histopathology MMT/MCLT Model

[12] = tested on: NF-κB; conditions: cited from earlier work

NC(=O)Nc1sc(-c2ccccc2)cc1C(N)=O [IKK inhibitor VI, (5-Phenyl-2-ureido)thiophene-3-carboxamide]
Effective against NF κβ (p<0.05) [1]: 0.23 to 15.3 µM
Effective range against NFkB [1]: ≥ 0.95 µM
Effective range against Osteoclasts [2]: ≥ 0.5 µM
Effective range against MMP-13 [3]: ≥ 0.24 µM
Non-toxic concentrations [4]: 0 to 0.9 M
Toxic concentrations (p<0.05) [4]: 1.9 to 3.83 µM
Non-toxic & predicted range of efficacy [5]: 0.95 to 4.0 µM
Overlapping effective and nontoxic range ([5]; inhibits with minimal or no toxicity to synovium or cartilage, overlapping range if effective in more than one assay): 0.24 to 15.2 µM
IC50 [6]: 0.013 to 0.018 µM
Non-toxic range (Chondrocyte) [7]: 0.23 to 15.6 µM
Non-toxic range (Synovial) [8]: 0.028 to 0.25 µM

CN1CC[C@]23c4c5ccc(O)c4O[C@H]2[C@@H](O)C=C[C@H]3[C@H]1C5 [Morphine]
Weight bearing, hours after dosing with significant difference ([9]; day 14): 1 h
Weight bearing, hours after dosing with significant difference ([9]; day 21, BL baseline): BL, 1, 3
Weight bearing, hours with significant effect ([10]; day 7): 1 h
Weight bearing, hours with significant effect ([10]; day 21): 3,5 h
Bone score ([11]; mean): 3.63
Depth ratio any matrix change, mean ([11]; mean): 0.34
Depth ratio any matrix change, zone 2 ([11]; mean): 0.11
Femoral cartilage degeneration score ([11]; mean): 2.33 and 2.33 ± 0.66
Tibial cartilage degeneration score, 3-zone total ([11]; mean): 6.21
Tibial cartilage degeneration score, zone 1 ([11]; mean): 4.25
Tibial cartilage degeneration score, zone 2 ([11]; mean): 1.92
Tibial cartilage degeneration score, zone 3 ([11]; mean): 0.04
Tibial cartilage degeneration width, significant ([11]; mean): 666.67 µm
Tibial cartilage degeneration width, total ([11]; mean): 1279.17 µm
Tibial osteophyte measure ([11]; mean): 573.75 µm
Tibial osteophyte score ([11]; mean): 4.42
Total joint score ([11]; mean): 12.96 and 12.96 ± 0.89
Total joint score w/o femur ([11]; mean): 10.63
% decrease, bone score ([11]; vs saline group): -12%
% decrease, depth ratio mean ([11]; vs saline group): 5%
% decrease, depth ratio zone 2 ([11]; vs saline group): 42%
% decrease, femoral cartilage degeneration score ([11]; vs saline group): -27%
% decrease, osteophyte measure ([11]; vs saline group): -12%
% decrease, osteophyte score ([11]; vs saline group): -13%
% decrease, significant degeneration width ([11]; vs saline group): 8%
% decrease, tibial score 3-zone total ([11]; vs saline group): 5%
% decrease, tibial score zone 1 ([11]; vs saline group): 1%
% decrease, tibial score zone 2 ([11]; vs saline group): 13%
% decrease, tibial score zone 3 ([11]; vs saline group): 0%
% decrease, total degeneration width ([11]; vs saline group): 3%
% decrease, total joint score ([11]; vs saline group): -5%
% decrease, total joint score w/o femur ([11]; vs saline group): -2%

COc1ccc(/C=C/c2ccccc2F)cc1 [NF-κB activation inhibitor IV, (E)-2-fluoro-4′-methoxystilbene]
fold more potent than resveratrol at inhibiting NF-κB [12]: Experimentally used as an anti-inflammatory but not an antioxidant 130-fold more potent than resveratrol at inhibiting NF-κB [94]

— article PMC4721142, “Randomized controlled studies on the efficacy of antiarthritic agents in inhibiting cartilage degeneration and pain associated with progression of osteoarthritis in the rat” (Arthritis Research & Therapy, 2016)
